{"source": "patent US20200352912A1", "about": "“ANTIMICROBIAL COMPOSITIONS AND METHODS OF USING THE SAME” (The Board Of Supervisors Of Louisiana State University And …, priority 2018, published 2020)", "key": {"[1]": {"tested_on": "C. albicans and S. aureus", "assay": "mouse C. albicans-S. aureus polymicrobial intra-abdominal infection", "format": "in vivo, mice", "settings": "10 mg/kg", "method": "Effect of inhibition of EP4 receptor signaling on survival. Mice received either vehicle or EP4 receptor antagonist at a dose of 10 mg/kg by i.p. injection as indicated in Materials and Methods. Mortality was assessed using Kaplan Meier test (***P<0.001; n=20/group) compared to control groups. Data shown are representative of three replicate experiments.\n(§1) The mouse peritonitis/intra-abdominal model was performed as previously described (8). In brief, for MRSA peritonitis, mice were injected intraperitoneally (i.p.) with 4×10^6 CFU or 5×10^6 CFU or 2×10^7 CFU of S. aureus in 0.2 ml of PBS containing 3% hog gastric mucin type III (Sigma Aldrich). Mice injected i.p. with 0.2 ml of mucin/PBS served as a negative infection control. For the intra-abdominal infection with C. albicans and S. aureus, mice were injected i.p. with 7×10^6 CFU of C. albicans and 8×10^7 CFU of S. aureus (8.7×10^7 CFU total) in 0.2 ml of PBS. After inoculation, mice were observed over 10 days for signs of morbidity (hunched posture, inactivity, lethargy, and ruffled fur) and mortality. […] In the MRSA peritonitis experiments, mice were sacrificed at 24 or 48 h post-inoculation to assess microbial burden. Peritoneal cavities were lavaged by injection of 2 ml of sterile PBS followed by gentle massaging of the peritoneal cavity. Peritoneal lavage fluid then was removed using a pipette inserted into a small incision in the abdominal cavity. Spleens were removed, weighed, and mechanically homogenized prior to CFU analysis. Microbial burdens in the peritoneal lavage fluid and spleen were enumerated as described above.\n(§2) Each inhibitor was prepared fresh as a concentrated stock (20-25 mg/ml) in DMSO and diluted to a working concentration of […] in sterile PBS (final DMSO concentration, 2.3%). A sham treatment containing only 2.3% DMSO in PBS was also prepared. For the MRSA peritonitis study, the EP4 receptor antagonist was administered 2 h after S. aureus inoculation and once daily thereafter until day 4 post inoculation. For the IAI co-infection study, COX inhibitor or vehicle control was administered 4 h prior to and 4 and 8 h after inoculation with C. albicans and S. aureus while the EP receptor antagonists were administered daily starting 1 day prior to and 5 days after infection. All other procedures were performed as described above. Control groups received the vehicle at the same dose interval.\nIn a final set of experiments, we evaluated the ability of L-161, 982 to reduce lethality in co-infected mice. Mice co-inoculated with the standard 7×106 C. albicans CFU and 8×107 S. aureus CFU (8.7×10^7 CFU total) were treated with L-161, 982 (10 mg/kg) 2 h post infection and once daily afterwards until day 5. […]"}, "S. aureus strain NRS383": {"tested_on": "S. aureus strain NRS383", "assay": "effect of exogenous thymidine on antibacterial activity", "format": "cell-based, Staphylococcus aureus", "settings": "50 μg/ml, 200 μg/ml thymidine", "method": "S. aureus strain NRS383 was grown in cation-adjusted Mueller-Hinton II broth alone (control), with 50 μg/ml of L-161, 982 or with 40 μg/ml of SXT (positive control)±200 μg/ml of thymidine. Cultures were incubated at 37° C. non-shaking and aliquots were removed at various time points and cultured for growth (CFU). Results are expressed as % of control at each time point. Mean values from two independent experiments are shown.\nEffect of exogenous thymidine on antibacterial activity of L-161, 982. S. aureus was cultured to mid-log phase in cation-adjusted Mueller-Hinton II broth with shaking at 37° C. Cultures were further diluted to yield a final concentration of 5×10^5 cells/ml. and treated with drugs alone or in combination with 200 μg/ml of thymidine (Sigma). Drugs were L-161, 982 (50 μg/ml) or 40 μg/ml of trimethoprim-sulfamethoxazole (SXT) at a ratio of 1:19 (2 μg/ml of trimethoprim and 38 μg/ml of sulfamethoxazole; Sigma) as a positive control. Cultures were incubated at 37° C. without shaking and aliquots were removed at t(0), 2, 4, 6, and 24 hours. CFUs were enumerated by plating various dilutions on TSA plates and incubating at 37° C. for 24 hours. Results were normalized to negative control cultures containing no drug at each time point."}, "S. aureus NRS383": {"tested_on": "S. aureus NRS383", "assay": "mouse MRSA peritonitis/sepsis model", "format": "in vivo, mice", "settings": "for survival by day 2 post-inoculation: 10 mg/kg i.p.", "method": "Mice were infected intraperitoneally with 0.2 ml of the indicated inoculum of S. aureus NRS383 in 3% hog gastric mucin/PBS. One group of mice/inoculum received either the vehicle or L-161, 982 at a dose of 10 mg/kg by i.p. injection as indicated in Materials and Methods. (A) Mortality was assessed using Kaplan Meier test (*P<0.05; **P<0.01; ***P<0.001; ns—not significant; n=15/group) compared to control groups. (B) Microbial burden in peritoneal lavage fluid and spleen was assessed between untreated (control) and treated (L-161, 982) groups 24 and 48 h post-inoculation (n=6 to 8/group). Values are plotted as the median CFU and compared using the Mann-Whitney U test (**P<0.01; ***P<0.001). Data shown are representative of three replicate experiments.\nas §1, §2\nL-161, 982 protects against mono- and poly-microbial infections with MRSA. We next evaluated the efficacy of L-161, 982 in vivo using an established mouse peritonitis/sepsis model of infection. Mice were inoculated with three varying lethal inocula of S. aureus and treated with L-161, 982 (10 mg/kg) intraperitoneally (i.p.) 2 h post-inoculation and once daily afterwards through day 4. Control group received the vehicle at the same dose interval."}}, "note": "Entries after “also recorded” stand apart in the source; their conditions may differ.", "data": [{"compound": "CCCCc1nn(-c2ccccc2C(F)(F)F)c(=O)n1Cc1ccc(-c2ccccc2S(=O)(=O)NC(=O)c2sccc2C)cc1", "note": "[L-161, 982, N-[[4′-[[3-Butyl-1,5-dihydro-5-oxo-1-[2-(trifluoromethyl)phenyl]-4H-1,2,4-triazol-4-yl]methyl][1,1′-biphenyl]-2-yl]sulfonyl]-3-methyl-2-thiophenecarboxamide]", "values": [{"measurement": "survival enhanced by", "setting": "[1]", "value": 40, "unit": "%"}, {"measurement": "survival", "setting": "[1]; vehicle control 10", "value": 50, "unit": "%"}, {"measurement": "effect of exogenous thymidine on growth inhibition", "setting": "S. aureus strain NRS383", "value": "did not reverse; also recorded: no effect"}, {"measurement": "reduction of S. aureus in peritoneal cavity and spleen", "setting": "S. aureus NRS383; 24 h post inoculation, vs untreated", "value": 3, "unit": "logs"}, {"measurement": "additional reduction of S. aureus in peritoneal cavity and spleen", "setting": "S. aureus NRS383; 48 h post infection, after a second dose", "value": 3, "unit": "log"}, {"measurement": "mortality by day 2 at high inoculum", "setting": "S. aureus NRS383; inoculum 2×10^7 CFU", "value": "could not be reversed"}, {"measurement": "survival by day 2 post-inoculation", "setting": "S. aureus NRS383; inoculum 4×10^6 CFU, control 40", "value": 85, "unit": "%"}, {"measurement": "survival by day 2 post-inoculation", "setting": "S. aureus NRS383; inoculum 5×10^6 CFU, control 25", "value": 55, "unit": "%"}, {"measurement": "survival through day 10", "setting": "S. aureus NRS383; intermediate and lowest inocula, continued dosing, control 20% survival", "value": "sustained survival"}, {"measurement": "survival rate raised by", "setting": "S. aureus NRS383; one treatment, depending on infectious dose", "value": "at least 50%"}]}]}
